{"source": "patent US20050085447A1", "about": "“Pyrido[3,4-d]pyrimidine derivatives as matrix metalloproteinase-13 inhibitors” (Warner-Lambert Company LLC, priority 2003, published 2005)", "key": {"[1]": {"target": "T1, MMP-7 full-length (Homo sapiens, UniProt P09237)", "T1 construct": "MMP-3 catalytic domain, MMP-7 full-length, MMP-8 full-length", "T1 sequence (P09237 95-267)": "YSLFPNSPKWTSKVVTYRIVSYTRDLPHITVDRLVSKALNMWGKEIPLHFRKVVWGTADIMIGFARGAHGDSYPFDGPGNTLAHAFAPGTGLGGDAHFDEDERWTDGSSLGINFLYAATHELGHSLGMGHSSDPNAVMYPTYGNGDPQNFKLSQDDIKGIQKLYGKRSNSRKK", "assay": "Thiopeptolide substrate hydrolysis inhibition assay, MMP-7 full-length", "type": "biochemical", "details": "full-length enzyme; read-out: MMP-7FL IC50", "description": "(§1) The assay methods of Biological Examples 1-4 measure the amount by which a test compound reduces the hydrolysis of a thiopeptolide substrate catalyzed by a matrix metalloproteinase enzyme or catalytic domain thereof. It has been shown previously by Ye Qi-Zhuang, Hupe D., and Johnson L. (Current Medicinal Chemistry, 1996;3:407-418) that inhibitor activity against a catalytic domain of an MMP is predictive of the inhibitor activity against the respective full-length MMP enzyme. The methods described below for the inhibition of MMP-13 may also be adapted and used to determine the ability of the compounds of Formula I to inhibit other matrix metalloproteases such as MMP-1, MMP-2, MMP-3, MMP-7, MMP-8, MMP-9, MMP-12, MMP-14, MMP-17, and the like.\n(§2) Thiopeptolide substrates show virtually no decomposition or hydrolysis at or below neutral pH in the absence of a matrix metalloproteinase enzyme. A typical thiopeptolide substrate commonly utilized for assays is Ac-Pro-Leu-Gly-thioester-Leu-Leu-Gly-OEt. A 100 μL assay mixture will contain 50 mM of N-2-hydroxyethylpiperazine-N′-2-ethanesulfonic acid buffer (“HEPES,” pH 7.0), 10 mM CaCl2, 100 μM thiopeptolide substrate, and 1 mM 5,5′-dithio-bis-(2-nitro-benzoic acid) (DTNB). […] The change in absorbance at 405 nm is monitored on a Thermo Max microplate reader (molecular Devices, Menlo Park, Calif.) at room temperature (22° C.). The calculation of the amount of hydrolysis of the thiopeptolide substrate is based on E412=13600 M^−1 cm^−1 for the DTNB-derived product 3-carboxy-4-nitrothiophenoxide. Assays are carried out with and without matrix metalloproteinase inhibitor compounds, and the amount of hydrolysis is compared for a determination of inhibitory activity of the test compounds.\n(§3) Test compounds were evaluated at various concentrations in order to determine their respective IC50 values, the micromolar concentration of compound required to cause a 50% inhibition of catalytic activity of the respective enzyme.\n(§4) Some representative compounds of Formula I have been evaluated for their ability to inhibit MMP-13, MMP-1FL, MMP-3CD, MMP-7FL, MMP-8FL, MMP-9FL, MMP-12CD, MMP-14CD, and/or MMP-17CD, wherein FL means full-length enzyme and CD means a catalytic domain of the full-length enzyme. Test compounds can be evaluated at various concentrations in order to determine their respective IC50 values, the micromolar concentration of compound required to cause a 50% inhibition of the hydrolytic activity of the respective enzyme.\n(§5) Certain compounds of Formula I have also been assayed with MMP-1 full-length, MMP-3 catalytic domain, MMP-7 full-length, MMP-8 full-length, MMP-9 full-length, MMP-12 catalytic domain, MMP-14 catalytic domain, and MMP-17 catalytic domain. […] In Biological Table 2, the compound example numbers for the Compound Examples are indicated in the column labelled “Ex. No.”"}, "[2]": {"target": "T2, MMP-17 catalytic domain (Homo sapiens, UniProt Q9ULZ9)", "T2 construct": "MMP-14 catalytic domain, and MMP-17 catalytic domain", "T2 sequence (Q9ULZ9 126-295 limits assumed)": "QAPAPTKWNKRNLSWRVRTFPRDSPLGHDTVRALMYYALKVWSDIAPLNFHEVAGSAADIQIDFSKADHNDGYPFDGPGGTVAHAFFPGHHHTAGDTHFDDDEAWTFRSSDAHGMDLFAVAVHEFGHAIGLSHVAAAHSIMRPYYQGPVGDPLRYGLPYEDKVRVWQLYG", "assay": "Thiopeptolide substrate hydrolysis inhibition assay, MMP-17 catalytic domain", "type": "biochemical", "details": "read-out: MMP-17 CD IC50", "description": "as §1, §2, §3, §4, §5"}, "[3]": {"test_system": "male Wistar rats", "assay": "Monosodium iodoacetate-induced osteoarthritis in rat model of cartilage damage (MIA Rat)", "type": "in vivo", "details": "for inhibition of cartilage erosion (surface area of erosion) versus vehicle control / rats in the treatment group that exhibited no cartilage erosion: 4 weeks", "description": "One end result of the induction of osteoarthritis in this model, as determined by histologic analysis, is the development of an osteoarthritic condition within the affected joint, as characterized by the loss of Toluidine blue staining and formation of osteophytes. Associated with the histologic changes is a concentration-dependent degradation of joint cartilage, as evidenced by affects on hind-paw weight distribution of the limb containing the affected joint, the presence of increased amounts of proteoglycan or hydroxyproline in the joint upon biochemical analysis, or histopathological analysis of the osteoarthritic lesions.\nIn the MIA Rat model on Day 0, the hind-paw weight differentials between the right arthritic joint and the left healthy joint of male Wistar rats (150 g) were determined with an incapacitance tester, model 2KG (Linton Instrumentation, Norfolk, United Kingdom). […] Then the rats were anesthetized with isofluorine, and the right, hind leg knee joint was injected with 1.0 mg of mono-iodoacetate (“MIA”) through the infrapatellar ligament. […] The rats were further administered either the compound of Compound Example 1 or vehicle (in the instant case, water) daily for 14 days or 28 days. The compound of Compound Example 1 was administered at doses of 1, 3, 10, and 30 milligrams per kilogram of rat per day, but invention compounds may be administered at other doses such as, for example, 60 mg/kg/day, 90-mg/kg/day, or 100 mg/kg/day according to the requirements of the compound being studied. It is well within the level of ordinary skill in the pharmaceutical arts to determine a proper dosage of an invention compound in this model.\nGenerally, an invention compound may be administered in this model by oral administration, but optionally intravenous administration via an osmotic pump could be employed. After 7 and 14 days for a two-week study, or 7, 14, and 28 days for a four-week study, the hind-paw weight distribution may be determined. […] This change in weight distribution was proportional to the degree of joint cartilage damage. Percent inhibition of a change in hind paw joint function was calculated as the percent change in hind-paw weight distribution for treated animals versus control animals. For example, for a two week study,\nIn the present study the compound of Compound Example 1 was administered perorally, and hind-paw weight differentials were determined at both 2 and 4 weeks. Further, in order to detect the presence of erosion of cartilage in the joints, the animals in the above study were sacrificed at 4 weeks, and the presence or absence of cartilage erosion was determined. The proportion of subjects without hind limb erosions was determined via an Exact Sequential Cochran-Armitage Trend test (SAS® Institute, 1999). The Cochran-Armitage Trend test was employed to determine whether the proportion of positive or “Yes” responders increases or decreases with increasing levels of treatment. For this particular study, it was expected that the number of animals without joint erosions increased with increasing dose."}}, "data": [{"smiles": "COc1ccc(CNC(=O)c2cc3c(=O)n(Cc4ccc(C(=O)O)cc4)cnc3cn2)cc1", "note": "[Compound Example 1, 4-[6-(4-methoxy-benzylcarbamoyl)-4-oxo-4H-pyrido[3,4-d]pyrimidin-3-ylmethyl]-benzoic acid]", "values": [{"measurement": "IC50", "setting": "[1]", "value": "> 100", "unit": "µM"}, {"measurement": "IC50", "setting": "[2]", "value": "> 100", "unit": "µM"}, {"measurement": "cartilage erosion versus vehicle control (in words)", "setting": "[3]; 2 weeks, 1, 3, 10 and 30 mg/kg orally BID", "value": "inhibited in a dose dependent manner cartilage erosion"}, {"measurement": "inhibition of cartilage erosion (surface area of erosion) versus vehicle control", "setting": "[3]; 1 mg/kg orally BID", "value": 40.5, "unit": "%"}, {"measurement": "rats in the treatment group that exhibited no cartilage erosion", "setting": "[3]; 1 mg/kg orally BID", "value": "5/12"}, {"measurement": "inhibition of cartilage erosion (surface area of erosion) versus vehicle control", "setting": "[3]; 3 mg/kg orally BID", "value": 55.6, "unit": "%"}, {"measurement": "rats in the treatment group that exhibited no cartilage erosion", "setting": "[3]; 3 mg/kg orally BID, p<0.05 versus vehicle", "value": "7/12"}, {"measurement": "inhibition of cartilage erosion (surface area of erosion) versus vehicle control", "setting": "[3]; 10 mg/kg orally BID", "value": 61.6, "unit": "%"}, {"measurement": "rats in the treatment group that exhibited no cartilage erosion", "setting": "[3]; 10 mg/kg orally BID, p<0.05 versus vehicle", "value": "7/12"}, {"measurement": "inhibition of cartilage erosion (surface area of erosion) versus vehicle control", "setting": "[3]; 30 mg/kg orally BID", "value": 32.9, "unit": "%"}, {"measurement": "rats in the treatment group that exhibited no cartilage erosion", "setting": "[3]; 30 mg/kg orally BID", "value": "4/12"}]}]}
